# Laboratory results reported in patent US12514852B2 (CINDOME PHARMA, INC., priority 2018, dated 2026).
# Key:
# beagle dogs [1] = test: Dog cardiovascular study, QTc, d4-domperidone capsules (Example 3); format: in vivo; conditions: male dogs; for QTc Percent Change Segment 1 (0-6 hours) / QTc Percent Change Segment 2 (7-24 hours) / QTc change Segment 1 (0-6 hours) / QTc change Segment 2 (7-24 hours): vs time-matched control; for Duration of Effect (hours post dose): QTc
# Procedure: Oral suspensions were administered via gavage for comparison purposes. […]
# One animal/treatment was dosed each week with at least a 3-day washout period between administrations until each animal received all treatments. See, Table 5. The same 5 animals received all treatments according to a Latin square design with at least a 3-day washout between treatments. Body temperature, blood pressure, heart rate, and the electrocardiogram (ECG) were monitored continuously for at least 2 hours prior to dosing and for at least 24 hours post dose.
# Three days prior to the study, the animals were continuously monitored for at least 24 hours for body temperature and cardiovascular endpoints while on the stock colony (10 days prior to the first administration). […] The first 24 hours of the data were used in the calculation of the QTc interval. Body temperature, blood pressure, heart rate (derived from blood pressure and ECG), and the ECG were monitored continuously from at least 2 hours predose until at least 24 hours post dose. Data were collected and analyzed in 1-minute intervals and are reported in 15-minute intervals. The QTc interval was calculated using a procedure based on the method described by Spence (“The heart rate corrected QT interval of conscious beagle dogs: a formula based on analysis of covariance,” Toxicol Sci, 1998; 45:247 258) and modified by Miyazaki and Tagawa (“Rate-correction technique for QT interval in long term telemetry ECG recording in beagle dogs,” Exp. Anim., 2002; 51:465 475). Blood samples (approximately 1 mL) were collected via jugular vein and 8 and 24 hours post dose to confirm exposure.
# Table 6 indicates the change (% and ms) from the appropriate time-matched control for each d4-domperidone treatment.
# beagle dogs [2] = test: Dog cardiovascular study, QTc, non-deuterated domperidone by gavage (Example 3); format: in vivo; conditions: for QTc Maximum % Change / Time of QTc Maximum % Change / QTc Percent Change Segment 1 (0-6 hours) / QTc Percent Change Segment 2 (7-24 hours) / QTc change Segment 1 (0-6 hours) / QTc change Segment 2 (7-24 hours) / QTcVdW increase (Van de Water formula) / Duration of Effect (hours post dose): beagle dogs; for QTc Percent Change Segment 1 (0-6 hours) / QTc Percent Change Segment 2 (7-24 hours) / QTc change Segment 1 (0-6 hours) / QTc change Segment 2 (7-24 hours): vs time-matched control; for Duration of Effect (hours post dose): QTc
# Procedure: Oral suspensions were administered via gavage for comparison purposes.
# USP. The d4-domperidone formulation was Formulation A, Example 1. […] One animal/treatment was dosed each week with at least a 2-day washout period between administrations until each animal received all treatments. The same 4 animals received treatments according to a Latin square design. Systolic blood pressure, diastolic blood pressure, heart rate and Lead II electrocardiogram were continuously recorded. The measurements started 1.5 hrs prior to the dose administration and all parameters were continuously recorded 24 hrs following the end of dosing of the last animal.
# The individual animal correction (QTcVdW) was calculated using Van de Water formula.
# in vivo = conditions: male, Beagle, dog, plasma, po, 1 mg/kg
compound,measurement,setting,value
"[2H]c1c([2H])c([2H])c2c([nH]c(=O)n2CCCN2CCC(n3c(=O)[nH]c4cc(Cl)ccc43)CC2)c1[2H] [d4-domperidone, 1-{3-[4-(5-chloro-2-oxo-2,3-dihydro-1H-1,3-benzodiazol-1-yl)piperidin-1yl]propyl}-2,3-dihydro(4,5,6,7-D4)-1H-1,3-benzodiazol-2-one]",QTc Maximum % Change,beagle dogs [1]; 20 mg capsule,4%
same,Time of QTc Maximum % Change,beagle dogs [1]; 20 mg capsule,3.5 h
same,QTc Percent Change Segment 1 (0-6 hours),beagle dogs [1]; 20 mg capsule,+1%
same,QTc Percent Change Segment 2 (7-24 hours),beagle dogs [1]; 20 mg capsule,+0%
same,QTc change Segment 1 (0-6 hours),beagle dogs [1]; 20 mg capsule,3 ms
same,QTc change Segment 2 (7-24 hours),beagle dogs [1]; 20 mg capsule,1 ms
same,Time of QTc Maximum % Change,beagle dogs [1]; 110 mg capsule,5 h
same,QTc Percent Change Segment 1 (0-6 hours),beagle dogs [1]; 110 mg capsule,+5%
same,QTc Percent Change Segment 2 (7-24 hours),beagle dogs [1]; 110 mg capsule,+1%
same,QTc change Segment 1 (0-6 hours),beagle dogs [1]; 110 mg capsule,12 ms
same,QTc change Segment 2 (7-24 hours),beagle dogs [1]; 110 mg capsule,2 ms
same,QTc Maximum % Change,"beagle dogs [1]; 110 mg capsule, statistically significant",10%
same,Time of QTc Maximum % Change,beagle dogs [1]; 385 mg capsule,6 h
same,QTc Percent Change Segment 1 (0-6 hours),beagle dogs [1]; 385 mg capsule,+8%
same,QTc Percent Change Segment 2 (7-24 hours),beagle dogs [1]; 385 mg capsule,+6%
same,QTc change Segment 1 (0-6 hours),beagle dogs [1]; 385 mg capsule,17 ms
same,QTc change Segment 2 (7-24 hours),beagle dogs [1]; 385 mg capsule,13 ms
same,QTc Maximum % Change,"beagle dogs [1]; 385 mg capsule, statistically significant",13%
same,Duration of Effect (hours post dose),beagle dogs [1]; 20 mg capsule,1.5-12 hours post dose
same,Duration of Effect (hours post dose),beagle dogs [1]; 110 mg capsule,0.5-12 hours post dose
"O=c1[nH]c2ccccc2n1CCCN1CCC(n2c(=O)[nH]c3cc(Cl)ccc32)CC1 [domperidone, 5-chloro-1-(1-[3-(2-oxo-2,3-dihydro-1H-benzo[d]imidazol-1-yl)propyl]piperidin-4-yl)-1H-benzo[d]imidazol-2(3H)-one]",QTc Maximum % Change,beagle dogs [2]; 1 mg/kg gavage,6%
same,Time of QTc Maximum % Change,beagle dogs [2]; 1 mg/kg gavage,2 h
same,QTc Percent Change Segment 1 (0-6 hours),beagle dogs [2]; 1 mg/kg gavage,+6%
same,QTc Percent Change Segment 2 (7-24 hours),beagle dogs [2]; 1 mg/kg gavage,+2%
same,QTc change Segment 1 (0-6 hours),beagle dogs [2]; 1 mg/kg gavage,13 ms
same,QTc change Segment 2 (7-24 hours),beagle dogs [2]; 1 mg/kg gavage,4 ms
same,Time of QTc Maximum % Change,beagle dogs [2]; 5 mg/kg gavage,2 h
same,QTc Percent Change Segment 1 (0-6 hours),beagle dogs [2]; 5 mg/kg gavage,+11%
same,QTc Percent Change Segment 2 (7-24 hours),beagle dogs [2]; 5 mg/kg gavage,+7%
same,QTc change Segment 1 (0-6 hours),beagle dogs [2]; 5 mg/kg gavage,23 ms
same,QTc change Segment 2 (7-24 hours),beagle dogs [2]; 5 mg/kg gavage,15 ms
same,QTc Maximum % Change,"beagle dogs [2]; 5 mg/kg gavage, statistically significant",11%
same,QTcVdW increase (Van de Water formula),beagle dogs [2]; 5 mg/kg,up to 23 msec
same,Time of QTc Maximum % Change,beagle dogs [2]; 20 mg/kg gavage,2 h
same,QTc Percent Change Segment 1 (0-6 hours),beagle dogs [2]; 20 mg/kg gavage,+10%
same,QTc Percent Change Segment 2 (7-24 hours),beagle dogs [2]; 20 mg/kg gavage,+7%
same,QTc change Segment 1 (0-6 hours),beagle dogs [2]; 20 mg/kg gavage,21 ms
same,QTc change Segment 2 (7-24 hours),beagle dogs [2]; 20 mg/kg gavage,16 ms
same,QTc Maximum % Change,"beagle dogs [2]; 20 mg/kg gavage, statistically significant",10%
same,QTcVdW increase (Van de Water formula),beagle dogs [2]; 20 mg/kg,≤ 21 ms
same,"effect on QTc change, lower doses of non-deuterated formulation compared to higher doses of deuterated formulation","beagle dogs [2]; FIGS. 9 and 10, beagle dogs, in words",greater effect on QTc change
same,Duration of Effect (hours post dose),beagle dogs [2]; 1 mg/kg gavage,1-2 hours post dose
same,Duration of Effect (hours post dose),beagle dogs [2]; 5 mg/kg gavage,0.5-6 hours post dose
same,Duration of Effect (hours post dose),beagle dogs [2]; 20 mg/kg gavage,0.5-4 hours post dose
same,MRT last,in vivo,5 h
